This is an account of results in patent EP4722228A1, “NEW COMPOUND TARGETING MUSK AND USE THEREOF” (The University of Tokyo, priority 2023, dated 2024).

The test system of assay [1] is C2C12 myotubes (Agrin-induced AChR clusters). The assay can be described thus: Agrin-induced AChR clusters in myotubes with tyrosine kinase inhibitors. Format: cell-based, mouse. The conditions noted are these: 10 pM recombinant rat agrin, inhibitor added simultaneously, 20 hours; low concentration range of 1 nM. An excerpt:
The mouse myoblast-derived cell line C2C12 (CRL-1772) was purchased from the American Type Culture Collection and used. For subculture, Dulbecco's Modified Eagle Medium (DMEM, high glucose, GlutaMAX supplement, pyruvate; GIBCO) supplemented with 20% fetal bovine serum (FBS; GIBCO) was used. For passage, after the culture medium was removed by suction, adherent cells were washed with phosphate buffered saline (PBS(-)), and HBSS (GIBCO) containing no Mg^2+ and Ca^2+ and containing 0.25% trypsin and 1 mM ethylenediaminetetraacetic acid was added, and the mixture was reacted in a CO2 incubator (37°C, 5% CO2) for 5 minutes. The detached cells were collected and then centrifuged at 1000 rpm at 4°C for 5 minutes (Sorvall X4R Pro, Thermo Fisher Scientific Inc.). After the supernatant was removed by suction, the cells were suspended in fresh culture medium, and 100 µL was seeded into a 96-well plate (BioCoat Collagen I 96-well Black/Clear plate, Corning Inc.) and cultured in a CO2 incubator (37°C, 5% CO2) until reaching confluence, typically within 72 hours. Subsequently, the culture medium was removed and the first medium change was performed with DMEM containing 2% horse serum (GIBCO) for induction of myotube cell differentiation.
A differentiation medium supplemented with an appropriate amount of the homodimer of the cyclic peptide MuSK7 (MuSK7 PEG11 dimer) was prepared in advance in a 96-well plate (Nunclon Δ Surface, 167008, Nunc), and used at 100 µL/well at the time of the second medium change in the process of inducing differentiation into myotubes. 20 hours after addition of the homodimer of the cyclic peptide MuSK7, the medium was removed, the cells were washed with PBS(-), and then fixed at room temperature for 15 minutes with PBS(-) containing 4% formaldehyde. After washing several times with 1% BSA-PBS(-), fluorescently labeled α-bungarotoxin (α-Btx, Alexa Fluor 488 conjugate; Invitrogen) was added to 1% BSA-PBS(-) at a final concentration of 100 nM, and after adding this to the wells, the mixture was allowed to stand at room temperature under a light-shielded condition for 30 minutes. After washing the cells several times with 1% BSA-PBS(-), 100 µL of PBS(-) was added to each well, and fluorescence observation was performed using a fluorescence imaging device. For observation of fluorescently labeled AChR clusters, an EVOS M7000 imaging system (Thermo Fisher Scientific Inc.) was used. During fluorescence image observation, a 10× objective lens was used, and tiff images of an area equivalent to 1 mm^2 were obtained. […] The average number of AChR clusters counted from the three tiff images derived from the same well was calculated and drawn on a graph.
MuSK inhibitor candidates were searched in the KinaseNET database (http://www.kinasenet.ca/) published as an open resource by Kinexus Bioinformatics Corporation (Canada), and three tyrosine kinase inhibitors (AST-487, Foretinib, and Sorafenib) were identified. Next, groups were prepared in which 10 pM recombinant rat agrin protein (550-AG, R&D Systems) derived from C2C12 myotubes was added alone, or in which each tyrosine kinase inhibitor (3 nM) was added simultaneously, and detection and observation of Agrin-induced AChR clusters were performed 20 hours after compound addition (five types, Crizotinib, Linifanib, AST-1306, Dovitinib, and BMS-754807, were used as non-MuSK inhibitory tyrosine kinase inhibitors).

In assay [2] the test system is C2C12 myotubes (AChR clusters). The experiment in a line: Induction of AChR clusters in myotube cells by the MuSK7 homodimer, with or without AST-487. The class given is cell-based, mouse. The settings on record: in the presence of AST-487.
Source text: (§1) The mouse myoblast-derived cell line C2C12 (CRL-1772) was purchased from the American Type Culture Collection and used. For subculture, Dulbecco's Modified Eagle Medium (DMEM, high glucose, GlutaMAX supplement, pyruvate; GIBCO) supplemented with 20% fetal bovine serum (FBS; GIBCO) was used. For passage, after the culture medium was removed by suction, adherent cells were washed with phosphate buffered saline (PBS(-)), and HBSS (GIBCO) containing no Mg^2+ and Ca^2+ and containing 0.25% trypsin and 1 mM ethylenediaminetetraacetic acid was added, and the mixture was reacted in a CO2 incubator (37°C, 5% CO2) for 5 minutes. […]
A differentiation medium supplemented with an appropriate amount of the homodimer of the cyclic peptide MuSK7 (MuSK7 PEG11 dimer) was prepared in advance in a 96-well plate (Nunclon Δ Surface, 167008, Nunc), and used at 100 µL/well at the time of the second medium change in the process of inducing differentiation into myotubes. […] After washing the cells several times with 1% BSA-PBS(-), 100 µL of PBS(-) was added to each well, and fluorescence observation was performed using a fluorescence imaging device. […] During fluorescence image observation, a 10× objective lens was used, and tiff images of an area equivalent to 1 mm^2 were obtained. […] The average number of AChR clusters counted from the three tiff images derived from the same well was calculated and drawn on a graph. […]
The test system of assay [3] is mouse myoblast-derived cell line C2C12. The assay can be described thus: Induction of AChR clusters in myotube cells and quantitative analysis (fluorescent α-bungarotoxin). The settings on record: 20 hours after addition. Format: cell-based.
Source text: as §1
After washing several times with 1% BSA-PBS(-), fluorescently labeled α-bungarotoxin (α-Btx, Alexa Fluor 488 conjugate; Invitrogen) was added to 1% BSA-PBS(-) at a final concentration of 100 nM, and after adding this to the wells, the mixture was allowed to stand at room temperature under a light-shielded condition for 30 minutes. After washing the cells several times with 1% BSA-PBS(-), 100 µL of PBS(-) was added to each well, and fluorescence observation was performed using a fluorescence imaging device. […] During fluorescence image observation, a 10× objective lens was used, and tiff images of an area equivalent to 1 mm^2 were obtained. […] The average number of AChR clusters counted from the three tiff images derived from the same well was calculated and drawn on a graph.
Another assay deals with T1, human MuSK (Homo sapiens, UniProt O15146).
T1 construct: DNA corresponding to the extracellular portion (amino acids 1-493) was amplified by a PCR method; made in house; host or cells: Expi293F cells
T1 sequence (O15146 24-493): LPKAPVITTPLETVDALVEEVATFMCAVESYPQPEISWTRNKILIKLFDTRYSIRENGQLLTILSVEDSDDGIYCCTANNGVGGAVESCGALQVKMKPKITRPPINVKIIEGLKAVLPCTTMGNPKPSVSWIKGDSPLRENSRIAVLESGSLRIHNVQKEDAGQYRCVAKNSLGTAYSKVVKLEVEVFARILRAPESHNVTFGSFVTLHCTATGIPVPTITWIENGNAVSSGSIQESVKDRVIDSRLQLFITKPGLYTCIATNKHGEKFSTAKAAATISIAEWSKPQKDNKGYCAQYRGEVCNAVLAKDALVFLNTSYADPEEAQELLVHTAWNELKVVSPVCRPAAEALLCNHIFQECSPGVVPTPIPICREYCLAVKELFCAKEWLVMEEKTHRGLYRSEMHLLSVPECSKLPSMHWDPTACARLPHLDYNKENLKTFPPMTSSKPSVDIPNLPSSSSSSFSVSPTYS
The assay can be described thus: SPR binding activity test to human MuSK (Biacore). The settings on record: human MuSK, peptide homodimers. The procedure: The human MuSK protein (extracellular portion) was prepared as a recombinant protein as follows. Using a Flexi clone (FXC31275, Promega Corporation) encoding Human MuSK isoform 1 precursor (NCBI Reference Sequence: NP_005583.1) as a template, DNA corresponding to the extracellular portion (amino acids 1-493) was amplified by a PCR method. XhoI and EcoRI restriction enzyme recognition sequences were added to both the 5' and 3' ends of the amplified DNA sequence, and these were used for insertion into the multiple cloning site of a pCAG-Neo hIgG1-Fc plasmid (Fujifilm Wako Pure Chemical Corporation). This plasmid (pCAG-Neo hMuSK-Fc) enables expression of a chimeric protein of the secretory human MuSK extracellular portion and human IgG1 Fc (hMuSK-Fc; molecular weight of approximately 200 kDa) in animal cells. In practice, ExpiFectamine 293 reagent (Invitrogen) was used to transfect the pCAG-Neo hMuSK-Fc plasmid into Expi293F cells (Invitrogen), and shaking culture was carried out (for 6 days) in an incubator containing 8% CO2. Next, the culture supernatant was collected, centrifuged, and sterilized by filtration through a 0.22 µm filter. The obtained culture supernatant was subjected to Protein G purification, and finally, a purified hMuSK-Fc sample with 99.96% purity (AKTA-FPLC analysis) was obtained.
The strength of binding between MuSK and the cyclic peptides was evaluated by quantitatively measuring the binding kinetics (binding affinity (dissociation constant) KD) of the cyclic peptides to MuSK immobilized on a sensor chip via an Fc tag, using surface plasmon resonance (SPR).
According to the standard immobilization protocol provided by the manufacturer, Fc-tagged human/mouse/rat MuSK was immobilized on a Protein G chip or a Protein A chip (Cytiva). A running buffer for the monomer/dimer peptides contained 0.010 M phosphate, 0.14 M NaCl, 0.0027 M KCl, 0.05% (v/v) Tween 20, and 0.1% (v/v) DMSO. A running buffer for the monomer/dimer U-bodies contained 0.010 M phosphate, 0.14 M NaCl, 0.0027 M KCl, and 0.05% (v/v) Tween 20. A series of concentrations of each monomer peptide, dimer peptide, monomer U-body, and dimer U-body was injected as analytes. A 1:1 binding fitting analysis was applied using Biacore evaluation software, and ka, kd, and KD values were determined.
Fc-tagged human MuSK was prepared according to the procedure described in Example 1(1). In addition, Fc-tagged mouse MuSK was used by expressing a nucleotide sequence encoding the Fc-tagged mouse MuSK extracellular domain (SEQ ID NO: 34). In addition, Fc-tagged rat MuSK was used as a chimeric protein of rat MuSK and an Fc protein, namely, Recombinant Rat MuSK Fc Chimera Protein (catalog number: 9847-MK-050, R&D Systems).
The affinity of the U-bodies and their complexes obtained as described above for MuSK of human, rat, and mouse was evaluated (binding activity test). The test was carried out according to the procedure described in Example 1(3). However, for the complexes of U-bodies, surface plasmon resonance (SPR) analysis was carried out using a Biacore 8K (Cytiva).
(Surface plasmon resonance follows binding to a sensor surface in real time, without labels.)

pKd: −log10 of the molar value. Numbered stars: 1 amine (or outer) side, 2 acyl side, 3 side chain; on linkers, the order of the positions; unused ones are H or OH. Bridge positions count the residues as written; N and C are the ends. Square brackets hold non-standard residues; d marks the D form. Peptide text beside a SMILES is read from it. I, II: the chains in the order shown. X1 = O=C(CCN1C(=O)CC([*:1])C1=O)NCCOCCOCCOCCOCCOCCOCCOCCOCCOCCOCCOCCNC(=O)CCN1C(=O)CC([*:2])C1=O

For `CCN1CCN(Cc2ccc(NC(=O)Nc3ccc(Oc4cc(NC)ncn4)cc3)cc2C(F)(F)F)CC1` [AST-487], in assay [1], the “Agrin-induced AChR cluster formation” value was “no AChR cluster formation was observed”. Further, the “AChR cluster formation by the homodimer of the cyclic peptide MuSK7” value in assay [2] is “no AChR clusters were detected”.
As a reminder, the koff is a measure of how fast the partners let go of each other. The low end stands for slow dissociation, the high end for fast dissociation. A word on the kon: it is the second-order rate constant of association. Read a high kon as faster complex formation. The term pKd denotes the Kd on a negative log10 scale, so that one unit is a factor of ten. Consider `CC(C)C[C@@H]1NC(=O)[C@H](CO)NC(=O)[C@H](C)NC(=O)[C@H](C(C)C)NC(=O)[C@H](C(C)C)NC(=O)[C@H](CC(N)=O)NC(=O)[C@H]([C@@H](C)O)NC(=O)[C@H](Cc2c[nH]cn2)NC(=O)[C@H](Cc2ccc(O)cc2)NC(=O)[C@H](CO)NC(=O)[C@@H]2CCCN2C(=O)[C@@H](Cc2ccc(O)cc2)NC(=O)CSC[C@@H](C(=O)N[C@@H](CSC2CC(=O)N(CCC(=O)NCCOCCOCCOCCOCCOCCOCCOCCOCCOCCOCCOCCNC(=O)CCN3C(=O)CC(SC[C@H](NC(=O)[C@@H]4CSCC(=O)N[C@H](Cc5ccc(O)cc5)C(=O)N5CCC[C@H]5C(=O)N[C@@H](CO)C(=O)N[C@@H](Cc5ccc(O)cc5)C(=O)N[C@@H](Cc5c[nH]cn5)C(=O)N[C@@H]([C@@H](C)O)C(=O)N[C@@H](CC(N)=O)C(=O)N[C@@H](C(C)C)C(=O)N[C@@H](C(C)C)C(=O)N[C@@H](C)C(=O)N[C@@H](CO)C(=O)N[C@@H](CC(C)C)C(=O)N[C@@H](CCCCN)C(=O)N[C@@H](CCCNC(=N)N)C(=O)N4)C(N)=O)C3=O)C2=O)C(N)=O)NC(=O)[C@H](CCCNC(=N)N)NC(=O)[C@H](CCCCN)NC1=O` (stereo partly shown) [MuSK7 PEG11 dimer] (I: {CH2CO}-[dY]PSYHTNVVASLKRCC-NH2 / II: {CH2CO}-[dY]PSYHTNVVASLKRCC-NH2; linker I:16-II:16 via X1; thioether I:N-I:15, II:N-II:15), for which the entries for the “number of AChR clusters” value in assay [3] (compound concentration exceeded 1 µM) and in assay [3] (concentration range from the pM order to 1 µM) were “conversely tended to decrease” and “increased in a dose-dependent manner”, respectively. The same compound showed a koff on human MuSK of 0.00051 s⁻¹. The kon on human MuSK amounted to 390000 M⁻¹ s⁻¹. For the same compound, on human MuSK (read-out: Kd), the pKd is 8.89.
